# Data: patent publication US11339161B2, “Triazolo pyridines as modulators of gamma-secretase” (Boehringer Ingelheim International GmbH, priority 2017, dated 2022)
# Read-outs that look alike come from different tables or passages of the source.
# What was measured:
# Aβ42 production = assay: Inhibition of Aβ42 production in H4 neuroglioma cells stably expressing human APP695 (MSD electrochemiluminescence); type: cell-based
# Aβ total = Aβ total levels in H4 neuroglioma cells stably expressing human APP695 (MSD electrochemiluminescence); type: cell-based; conditions: selectivity ratio vs. Aβtotal
# Method in brief: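 H4 cells expressing human APP695, plated near confluency, exposed 22 h at 37 °C to compounds over 30 μM–0.1 nM (0.5% DMSO final). Supernatant Aβ total quantified by MSD electrochemiluminescence immunoassay.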
# ABL1 = ABL1 (Homo sapiens, UniProt P00519); assay: Z'-LYTE SelectScreen biochemical kinase assay ABL1
# Chain of ABL1 (P00519 whole entry): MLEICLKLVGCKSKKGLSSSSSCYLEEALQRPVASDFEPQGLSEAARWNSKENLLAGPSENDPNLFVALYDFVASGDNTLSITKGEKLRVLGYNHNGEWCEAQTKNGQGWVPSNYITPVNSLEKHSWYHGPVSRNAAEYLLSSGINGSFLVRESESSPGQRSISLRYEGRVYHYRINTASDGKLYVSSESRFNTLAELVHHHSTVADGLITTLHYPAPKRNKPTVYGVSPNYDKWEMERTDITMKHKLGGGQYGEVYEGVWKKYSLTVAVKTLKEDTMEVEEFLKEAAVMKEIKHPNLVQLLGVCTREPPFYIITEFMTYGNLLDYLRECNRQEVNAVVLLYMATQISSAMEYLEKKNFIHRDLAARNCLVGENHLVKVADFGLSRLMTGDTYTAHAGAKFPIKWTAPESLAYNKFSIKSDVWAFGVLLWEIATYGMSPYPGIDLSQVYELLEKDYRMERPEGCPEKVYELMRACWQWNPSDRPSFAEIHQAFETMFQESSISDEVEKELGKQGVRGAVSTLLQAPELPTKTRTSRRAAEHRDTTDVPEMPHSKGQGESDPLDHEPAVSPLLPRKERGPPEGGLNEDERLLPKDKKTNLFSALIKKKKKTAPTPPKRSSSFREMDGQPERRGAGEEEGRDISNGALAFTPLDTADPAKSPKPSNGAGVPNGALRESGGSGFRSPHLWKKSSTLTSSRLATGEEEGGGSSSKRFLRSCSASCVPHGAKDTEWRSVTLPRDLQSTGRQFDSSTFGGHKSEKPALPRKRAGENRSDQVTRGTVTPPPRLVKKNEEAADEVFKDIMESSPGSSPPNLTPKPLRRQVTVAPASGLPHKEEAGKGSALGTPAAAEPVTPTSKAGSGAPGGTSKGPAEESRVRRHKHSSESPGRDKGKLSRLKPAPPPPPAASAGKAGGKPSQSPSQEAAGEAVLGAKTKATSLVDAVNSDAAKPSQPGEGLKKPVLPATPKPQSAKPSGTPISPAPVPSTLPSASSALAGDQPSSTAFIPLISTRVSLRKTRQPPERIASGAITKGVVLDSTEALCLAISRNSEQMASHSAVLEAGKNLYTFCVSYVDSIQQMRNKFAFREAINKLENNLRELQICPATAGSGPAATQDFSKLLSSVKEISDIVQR
# Text: (§1) Thermo Fisher Scientific SelectScreen™ Biochemical Kinase Profiling Service Z′-LYTE™ Screening Protocol and Assay Conditions Assay Theory
# (§2) The […] biochemical assay employs a fluorescence-based, coupled-enzyme format and is based on the differential sensitivity of phosphorylated and non-phosphorylated peptides to proteolytic cleavage. The peptide substrate is labeled with two fluorophores—one at each end—that make up a FRET pair. In the primary reaction, the kinase transfers the gamma-phosphate of ATP to a single tyrosine, serine or threonine residue in a synthetic FRET-peptide. In the secondary reaction, a site-specific protease recognizes and cleaves non-phosphorylated FRET-peptides. Phosphorylation of FRET-peptides suppresses cleavage by the Development Reagent. Cleavage disrupts FRET between the donor (i.e., coumarin) and acceptor (i.e., fluorescein) fluorophores on the FRET-peptide, whereas uncleaved, phosphorylated FRET-peptides maintain FRET. A ratiometric method, which calculates the ratio (Emission Ratio=Coumarin emission (445 nm)/Fluorescein emission (520 nm)) of donor emission to acceptor emission after excitation of the donor fluorophore at 400 nm, is used to quantitate reaction progress, as shown in the equation below. A significant benefit of this ratiometric method for quantitating reaction progress is the elimination of well-to-well variations in FRET-peptide concentration and signal intensities. As a result, the assay yields very high Z′-factor values (>0.7) at a low percent phosphorylation. Both cleaved and uncleaved FRET-peptides contribute to the fluorescence signals and therefore to the Emission Ratio. The extent of phosphorylation of the FRET-peptide can be calculated from the Emission Ratio. The Emission Ratio will remain low if the FRET-peptide is phosphorylated (i.e., no kinase inhibition) and will be high if the FRET-peptide is non-phosphorylated (i.e., kinase inhibition).
# (§3) The Test Compounds are screened in 1% DMSO (final) in the well. For 10 point titrations, 3-fold serial dilutions are conducted from the starting concentration of the customer's choosing.
# (§4) All Peptide/Kinase Mixtures are diluted to a 2× working concentration in the appropriate Kinase Buffer (see section Kinase Specific Assay Conditions for a complete description).
# (§5) All ATP Solutions are diluted to a 4× working concentration in Kinase Buffer (50 mM HEPES pH 7.5, 0.01% BRIJ-35, 10 mM MgCl2, 1 mM EGTA). ATP Km apparent is previously determined using a Z″-LYTE assay.
# (§6) The Development Reagent is diluted in Development Buffer (see section Kinase-Specific Assay Conditions—Direct and Cascade for a complete description).
# (§7) Bar-coded Corning, low volume NBS, black 384-well plate (Corning Cat. #4514) • 1. 100 nL—100× Test Compound in 100% DMSO • 2. 2.4 μL—Kinase buffer • 3. 5 μL—2× Peptide/Kinase Mixture • 4. 2.5 μL—4×ATP Solution • 5. 30—second plate shake • 6. 60—minute Kinase Reaction incubation at room temperature • 7. 5 μL—Development Reagent Solution • 8. 30—second plate shake • 9. 60—minute Development Reaction incubation at room temperature • 10. Read on fluorescence plate reader and analyze the data Z′-LYTE Assay Controls
# (§8) SelectScreen Kinase Profiling Service uses XLfit from IDBS. The dose response curve is curve fit to model number 205 (sigmoidal dose-response model).
# (§9) The 2×ABL1/Tyr 02 mixture is prepared in 50 mM HEPES pH 7.5, 0.01% BRIJ-35, 10 mM MgCl2, 1 mM EGTA. The final 10 μL Kinase Reaction consists of 0.29-1.26 ng ABL1 and 2 μM Tyr 02 in 50 mM HEPES pH 7.5, 0.01% BRIJ-35, 10 mM MgCl2, 1 mM EGTA. After the 1 hour Kinase Reaction incubation, 5 μL of a 1:128 dilution of Development Reagent A is added.
# RET = RET (Homo sapiens, UniProt P07949); assay: Z'-LYTE SelectScreen biochemical kinase assay RET
# Chain of RET (P07949 29-1114): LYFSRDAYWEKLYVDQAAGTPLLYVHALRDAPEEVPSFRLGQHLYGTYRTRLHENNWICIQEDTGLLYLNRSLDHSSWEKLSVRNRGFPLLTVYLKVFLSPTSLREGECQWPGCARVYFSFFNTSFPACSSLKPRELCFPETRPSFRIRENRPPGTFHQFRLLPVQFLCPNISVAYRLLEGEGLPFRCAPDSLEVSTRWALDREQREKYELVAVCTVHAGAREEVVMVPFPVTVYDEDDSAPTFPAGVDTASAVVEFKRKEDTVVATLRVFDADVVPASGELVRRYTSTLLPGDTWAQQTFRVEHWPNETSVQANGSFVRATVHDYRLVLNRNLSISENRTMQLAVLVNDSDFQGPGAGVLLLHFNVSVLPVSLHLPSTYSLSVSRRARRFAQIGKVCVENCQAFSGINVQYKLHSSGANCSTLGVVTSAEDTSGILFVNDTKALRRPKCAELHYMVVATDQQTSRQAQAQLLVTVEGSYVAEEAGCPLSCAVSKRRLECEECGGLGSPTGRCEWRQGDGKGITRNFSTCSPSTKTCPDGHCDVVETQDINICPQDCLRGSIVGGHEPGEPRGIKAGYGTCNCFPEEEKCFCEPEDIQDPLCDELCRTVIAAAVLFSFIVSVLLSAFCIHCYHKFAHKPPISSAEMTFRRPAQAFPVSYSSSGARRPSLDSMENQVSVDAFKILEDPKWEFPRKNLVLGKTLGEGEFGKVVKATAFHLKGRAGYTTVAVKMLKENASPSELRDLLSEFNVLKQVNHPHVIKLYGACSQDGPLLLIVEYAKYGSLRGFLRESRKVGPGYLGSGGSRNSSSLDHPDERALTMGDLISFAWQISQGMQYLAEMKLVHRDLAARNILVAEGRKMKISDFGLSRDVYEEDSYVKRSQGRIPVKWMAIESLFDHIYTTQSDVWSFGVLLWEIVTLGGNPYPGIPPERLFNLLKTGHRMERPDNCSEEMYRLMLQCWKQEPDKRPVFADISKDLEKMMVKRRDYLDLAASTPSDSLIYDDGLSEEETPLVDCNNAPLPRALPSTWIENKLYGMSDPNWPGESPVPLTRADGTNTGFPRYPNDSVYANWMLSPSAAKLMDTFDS
# Text: as §1, §2, §3, §4, §5, §6, §7, §8
# as §9, with “2×RET/Tyr” for “2×ABL1/Tyr”, “0.49-3.64” for “0.29-1.26”, “RET” for “ABL1”
# RPS6KB1 (p70S6K) = RPS6KB1 (p70S6K) (Homo sapiens, UniProt P23443); assay: Z'-LYTE SelectScreen biochemical kinase assay RPS6KB1 (p70S6K)
# Chain of RPS6KB1 (p70S6K) (P23443 whole entry): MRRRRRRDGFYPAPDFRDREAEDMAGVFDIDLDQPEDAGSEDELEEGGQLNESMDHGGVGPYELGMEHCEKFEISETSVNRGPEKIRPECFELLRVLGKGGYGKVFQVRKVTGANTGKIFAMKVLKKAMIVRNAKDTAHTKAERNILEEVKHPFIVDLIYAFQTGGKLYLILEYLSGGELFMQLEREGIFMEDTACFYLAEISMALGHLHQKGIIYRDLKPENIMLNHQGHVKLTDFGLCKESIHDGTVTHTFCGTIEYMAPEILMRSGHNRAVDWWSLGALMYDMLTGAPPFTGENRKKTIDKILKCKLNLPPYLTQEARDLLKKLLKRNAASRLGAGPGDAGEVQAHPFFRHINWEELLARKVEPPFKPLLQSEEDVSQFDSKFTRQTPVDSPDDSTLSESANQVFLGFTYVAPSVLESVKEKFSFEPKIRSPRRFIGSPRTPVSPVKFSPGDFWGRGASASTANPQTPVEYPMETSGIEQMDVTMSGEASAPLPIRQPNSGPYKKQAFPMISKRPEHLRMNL
# Text: as §1, §2, §3, §4, §5, §6, §7, §8
# as §9, with “2×RPS6 KB1 (p70S6K)/Ser/Thr 07” for “2×ABL1/Tyr 02”, “2.87-17.7” for “0.29-1.26”, “RPS6 KB1 (p70S6K)” for “ABL1”, “Ser/Thr 07” for “Tyr 02”, “1:45000” for “1:128”
# [1] = H4 neuroglioma cells expressing human APP695, 22 hours incubation, Table 4a
# [2] = 10 μmolar compound concentration, ATP at Km app, read-out: ABL1 inhibition
# [3] = read-out: % Inhibition mean ABL1
# [4] = 10 μmolar compound concentration, ATP at Km app, read-out: RET inhibition
# [5] = read-out: % Inhibition mean RET
# [6] = 10 μmolar compound concentration, ATP at Km app, read-out: RPS6KB1 (p70S6K) inhibition
# [7] = read-out: % Inhibition mean RPS6KB1 (p70S6K)
Compound,IC50 (Aβ42 production; [1]),inhibition at 10 µM (ABL1; [2]),inhibition at 10 µM (ABL1; [3]),inhibition at 10 µM (RET; [4]),inhibition at 10 µM (RET; [5]),inhibition at 10 µM (RPS6KB1 (p70S6K); [6]),inhibition at 10 µM (RPS6KB1 (p70S6K); [7]),"IC50 (Aβ42 production; Homo sapiens, H4 neuroglioma cells, same assay as table 4a, prior art compounds, Table 4b)",inhibition at 10 µM (ABL1; read-out: % Inhibition mean),inhibition at 10 µM (RET; read-out: % Inhibition mean),inhibition at 10 µM (RPS6KB1 (p70S6K); read-out: % Inhibition mean),Ratio AβTotal IC50/Aβ42 IC50 (Aβ total; Table 4a),modulation of γ-secretase (in words) (Aβ42 production; tables 4a/4b),"Ratio AβTotal IC50/Aβ42 IC50 (Aβ total; prior art compounds, Table 4b)"
"CCn1ncc2c1CCC(Nc1nc3c(-c4ccccc4C)cccn3n1)C2 (centres unmarked) [Example 56, (1-Ethyl-4,5,6,7-tetrahydro-1H-indazol-5-yl)-[8-(2-methyl-phenyl)-[1,2,4]triazolo[1,5-a]pyridine-2-yl]-amine]",160 nM,< 40%,20%,< 40%,27%,< 40%,1%,,,,,49,,
"CCCn1ncc2c1CCC(Nc1nc3c(-c4ccc(F)cc4C)cccn3n1)C2 (centres unmarked) [Example 43, [8-(4-fluoro-2-methyl-phenyl)-[1,2,4]triazolo[1,5-a]pyridine-2-yl]-(1-propyl-4,5,6,7-tetrahydro-1H-indazol-5-yl)-amine]",60 nM,< 40%,17%,< 40%,26%,< 40%,3%,,,,,48,,
"CCn1nc(Cl)c2c1CCC(Nc1nc3c(-c4ccc(F)cc4C)cccn3n1)C2 (centres unmarked) [Example 48, (3-Chloro-1-ethyl-4,5,6,7-tetrahydro-1H-indazol-5-yl)-[8-(4-fluoro-2-methyl-phenyl)-[1,2,4]triazolo[1,5-a]pyridine-2-yl]-amine]",750 nM,< 40%,13%,< 40%,18%,< 40%,15%,,,,,22,,
"CC1(C)C(=O)Nc2ccc(Nc3nc4c(-c5cccc(F)c5)cccn4n3)cc21 [Cpd. 263 in WO09155551, reference compound]",,> 80%,,> 80%,,> 80%,,6000 nM,99%,96%,93%,,rather poor modulation,2
"CCn1ncc2c1C(C)CC(Nc1nc3c(-c4cc(F)c(F)c(F)c4)cccn3n1)C2 (centres unmarked) [Example 49, (1-Ethyl-7-methyl-4,5,6,7-tetrahydro-1H-indazol-5-yl)-[8-(3,4,5-trifluoro-phenyl)-[1,2,4]triazolo[1,5-a]pyridine-2-yl]-amine]",950 nM,< 40%,15%,< 40%,22%,< 40%,33%,,,,,15,,
"CCCCn1ncc2c1CCC(Nc1nc3c(-c4ccc(F)cc4C)cccn3n1)C2 (centres unmarked) [Example 46, [8-(4-fluoro-2-methyl-phenyl)-[1,2,4]triazolo[1,5-a]pyridine-2-yl]-(1-butyl-4,5,6,7-tetrahydro-1H-indazol-5-yl)-amine]",2770 nM,< 40%,10%,< 40%,26%,< 40%,6%,,,,,4,,

# Continued by falling IC50 (Aβ42 production; [1]), values first:
IC50 (Aβ42 production; [1]),inhibition at 10 µM (ABL1; [2]),inhibition at 10 µM (ABL1; [3]),inhibition at 10 µM (RET; [4]),inhibition at 10 µM (RET; [5]),inhibition at 10 µM (RPS6KB1 (p70S6K); [6]),inhibition at 10 µM (RPS6KB1 (p70S6K); [7]),"IC50 (Aβ42 production; Homo sapiens, H4 neuroglioma cells, same assay as table 4a, prior art compounds, Table 4b)",inhibition at 10 µM (ABL1; read-out: % Inhibition mean),inhibition at 10 µM (RET; read-out: % Inhibition mean),inhibition at 10 µM (RPS6KB1 (p70S6K); read-out: % Inhibition mean),Compound,Ratio AβTotal IC50/Aβ42 IC50 (Aβ total; Table 4a),modulation of γ-secretase (in words) (Aβ42 production; tables 4a/4b),"Ratio AβTotal IC50/Aβ42 IC50 (Aβ total; prior art compounds, Table 4b)"
2200 nM,< 40%,6%,< 40%,2%,< 40%,1%,,,,,"CCn1nnc2c1CCC(Nc1nc3c(-c4ccc(F)cc4C)cccn3n1)C2 (centres unmarked) [Example 51, (1-Ethyl-4,5,6,7-tetrahydro-1H-benzotriazol-5-yl)-[8-(4-fluoro-2-methyl-phenyl)-[1,2,4]triazolo[1,5-a]pyridine-2-yl]-amine]",2,,
9 nM,< 40%,3%,< 40%,20%,< 40%,3%,,,,,"CCn1ncc2c1CC[C@@H](Nc1nc3c(-c4ccc(F)c(Cl)c4)cccn3n1)C2 [Example R-61, (R)-[8-(3-Chloro-4-fluoro-phenyl)-[1,2,4]triazolo[1,5-a]pyridine-2-yl]-(1-ethyl-4,5,6,7-tetrahydro-1H-indazol-5-yl)-amine]",1098,,
